In patent publication US7928063B2, “Analogs of human growth hormone-releasing hormone, their preparation and use” (Instytut Farmaceutyczny, priority 2001, dated 2011):
Where two headings read alike, the source gives them in different places. Square brackets hold non-standard residues; d marks the D form. Peptide text beside a SMILES is read from it. * marks the point of attachment. Desaminotyrosyl = O=C(CCc1ccc(O)cc1)*; hArg = N=C(N)NCCCC[C@H](N)C(=O)O; Agb = N=C(N)NCC[C@H](N)C(=O)O; Agp = N=C(N)NC[C@H](N)C(=O)O; Nle = CCCC[C@H](N)C(=O)O; Orn = NCCC[C@H](N)C(=O)O

Columns and labels:
trypsin = assay: Trypsin digestion test (enzymatic resistance, HPLC); type: in vitro ADME; conditions: for remaining at 0.5 h, 0.4 mg/ml / remaining at 1 h, 0.4 mg/ml: isolated enzyme trypsin; for Resistance to trypsin digestion (in words): after 30 minutes
Experimental: The compounds prepared were also tested for enzymatic resistance in the trypsin digestion test. […] Subsequently, a trypsin solution was added (100 μl; 0.02 mg/ml; Serva, 36 U/mg). […] An aliquot (500 μl) was withdrawn and diluted with 0.5 M acetic acid (1 ml), then lyophilized. The material obtained was analyzed by HPLC, using a Knauer system with an Eurospher 100 C18 (4.6×250 mm, 5 micron) column. The following solvent systems were used: A, 0.1% TFA in water; […]

GH release = assay: Effect of subcutaneous administration on GH release (plasma GH by RIA) in male rats; type: in vivo, rat; conditions: for Relative potency compared with hGH-RH-(1-29)—NH2: at 15 minutes after the injection; for Plasma GH at various times after injection, 15 min. / Plasma GH at various times after injection, 30 min. / Plasma GH at various times after injection, 0 min.: male rats, mean ± SEM; for Plasma GH at various times after injection, 0 min.: sample 1 minute before injection; for Net GH concentration Δ(15 − 30): GH at 15 min. minus GH at 30 min.; for Net GH concentration Δ(15 − 0): GH at 15 min. minus GH before injection
[1] = trypsin, pH 8.5, 37° C., digestion time 30 min., read-out: % Unchanged compound
[2] = trypsin, pH 8.5, 37° C., digestion time 60 min., read-out: % Unchanged compound

| remaining at 0.5 h, 0.4 mg/ml (trypsin; pH 8.5) [%] | remaining at 1 h, 0.4 mg/ml (trypsin; pH 8.5) [%] | Structure (SMILES) | remaining at 0.5 h, 0.4 mg/ml (trypsin; [1]) [%] | remaining at 1 h, 0.4 mg/ml (trypsin; [2]) [%] | Resistance to trypsin digestion (in words) (trypsin) | other results |
| --- | --- | --- | --- | --- | --- | --- |
|  |  | CCCC[C@H](NC(=O)[C@@H](NC(=O)[C@H](CC(=O)O)NC(=O)[C@H](CCC(N)=O)NC(=O)[C@H](CC(C)C)NC(=O)[C@H](CC(C)C)NC(=O)[C@H](CCCCNC(=N)N)NC(=O)[C@H](CCCCNC(=N)N)NC(=O)[C@H](C)NC(=O)[C@H](CO)NC(=O)[C@H](CC(C)C)NC(=O)[C@H](CCC(N)=O)NC(=O)[C@H](C)NC(=O)[C@H](CC(C)C)NC(=O)[C@@H](NC(=O)[C@H](CCCCNC(=N)N)NC(=O)[C@H](CCNC(=N)N)NC(=O)[C@H](Cc1ccc(O)cc1)NC(=O)[C@H](CO)NC(=O)[C@H](CC(N)=O)NC(=O)[C@@H](NC(=O)[C@H](Cc1ccccc1)NC(=O)[C@@H](NC(=O)[C@H](C)NC(=O)[C@H](CC(=O)O)NC(=O)[C@H](C)NC(=O)CCc1ccc(O)cc1)[C@@H](C)CC)[C@@H](C)O)C(C)C)[C@@H](C)CC)C(=O)N[C@@H](CC(=O)O)C(=O)N[C@H](CCCNC(=N)N)C(N)=O [Compound 5, Dat-Ala-Asp-Ala-Ile-Phe-Thr-Asn-Ser-Tyr^10-Gab-hArg-Val-Leu-Ala-Gln-Leu-Ser-Ala-hArg-hArg-Leu-Leu-Gln-Asp-Ile-Nle-Asp-D-Arg-NH2] (Desaminotyrosyl-ADAIFTNSY[Agb][hArg]VLAQLSA[hArg][hArg]LLQDI[Nle]D[dR]-NH2) | 80 | 51 |  |  |
|  |  | CCCC[C@H](NC(=O)[C@@H](NC(=O)[C@H](CC(=O)O)NC(=O)[C@H](CCC(N)=O)NC(=O)[C@H](CC(C)C)NC(=O)[C@H](CC(C)C)NC(=O)[C@H](CNC(=N)N)NC(=O)[C@H](CCCCNC(=N)N)NC(=O)[C@H](C)NC(=O)[C@H](CO)NC(=O)[C@H](CC(C)C)NC(=O)[C@H](CCC(N)=O)NC(=O)[C@H](C)NC(=O)[C@H](CC(C)C)NC(=O)[C@@H](NC(=O)[C@H](CNC(=N)N)NC(=O)[C@H](CNC(=N)N)NC(=O)[C@H](Cc1ccc(O)cc1)NC(=O)[C@H](CO)NC(=O)[C@H](CC(N)=O)NC(=O)[C@@H](NC(=O)[C@H](Cc1ccccc1)NC(=O)[C@@H](NC(=O)[C@H](C)NC(=O)[C@H](CC(=O)O)NC(=O)[C@H](C)NC(=O)CCc1ccc(O)cc1)[C@@H](C)CC)[C@@H](C)O)C(C)C)[C@@H](C)CC)C(=O)N[C@@H](CC(=O)O)C(=O)N[C@@H](CNC(=N)N)C(N)=O [Compound 8, Dat-Ala-Asp-Ala-Ile-Phe-Thr-Asn-Ser-Tyr^10-Gap-Gap-Val-Leu-Ala-Gln-Leu-Ser-Ala-hArg-Gap-Leu-Leu-Gln-Asp-Ile-Nle-Asp-Gap-NH2] (Desaminotyrosyl-ADAIFTNSY[Agp][Agp]VLAQLSA[hArg][Agp]LLQDI[Nle]D[Agp]-NH2) | > 99 | > 99 | unchanged |  |
|  |  | CCCC[C@H](NC(=O)[C@@H](NC(=O)[C@H](CC(=O)O)NC(=O)[C@H](CCC(N)=O)NC(=O)[C@H](CC(C)C)NC(=O)[C@H](CC(C)C)NC(=O)[C@H](CCCN)NC(=O)[C@H](CCCCNC(=N)N)NC(=O)[C@H](C)NC(=O)[C@H](CO)NC(=O)[C@H](CC(C)C)NC(=O)[C@H](CCC(N)=O)NC(=O)[C@H](C)NC(=O)[C@H](CC(C)C)NC(=O)[C@@H](NC(=O)[C@H](CCCN)NC(=O)[C@H](CCCCNC(=N)N)NC(=O)[C@H](Cc1ccc(O)cc1)NC(=O)[C@H](CO)NC(=O)[C@H](CC(N)=O)NC(=O)[C@@H](NC(=O)[C@H](Cc1ccccc1)NC(=O)[C@@H](NC(=O)[C@H](C)NC(=O)[C@H](CC(=O)O)NC(=O)[C@H](C)NC(=O)CCc1ccc(O)cc1)[C@@H](C)CC)[C@@H](C)O)C(C)C)[C@@H](C)CC)C(=O)N[C@@H](CC(=O)O)C(=O)N[C@@H](CCCCNC(=N)N)C(N)=O [Compound 2, Dat-Ala-Asp-Ala-Ile-Phe-Thr-Asn-Ser-Tyr^10-hArg-Orn-Val-Leu-Ala-Gln-Leu-Ser-Ala-hArg^20-Orn-Leu-Leu-Gln-Asp-Ile-Nle-Asp-hArg^29-NH2] (Desaminotyrosyl-ADAIFTNSY[hArg][Orn]VLAQLSA[hArg][Orn]LLQDI[Nle]D[hArg]-NH2) | > 99 | > 99 | unchanged |  |
| 75 | 68 | CCCC[C@H](NC(=O)[C@@H](NC(=O)[C@H](CC(=O)O)NC(=O)[C@H](CCC(N)=O)NC(=O)[C@H](CC(C)C)NC(=O)[C@H](CC(C)C)NC(=O)[C@H](CNC(=N)N)NC(=O)[C@H](CNC(=N)N)NC(=O)[C@H](C)NC(=O)[C@H](CO)NC(=O)[C@H](CC(C)C)NC(=O)[C@H](CCC(N)=O)NC(=O)[C@H](C)NC(=O)[C@H](CC(C)C)NC(=O)[C@@H](NC(=O)[C@H](CNC(=N)N)NC(=O)[C@H](CNC(=N)N)NC(=O)[C@H](Cc1ccc(O)cc1)NC(=O)[C@H](CO)NC(=O)[C@H](CC(N)=O)NC(=O)[C@@H](NC(=O)[C@H](Cc1ccccc1)NC(=O)[C@@H](NC(=O)[C@H](C)NC(=O)[C@H](CC(=O)O)NC(=O)[C@H](C)NC(=O)CCc1ccc(O)cc1)[C@@H](C)CC)[C@@H](C)O)C(C)C)[C@@H](C)CC)C(=O)N[C@@H](CC(=O)O)C(=O)N[C@@H](CNC(=N)N)C(N)=O [Compound 7, Dat-Ala-Asp-Ala-Ile-Phe-Thr-Asn-Ser-Tyr^10-Gap-Gap-Val-Leu-Ala-Gln-Leu-Ser-Ala-Gap-Gap-Leu-Leu-Gln-Asp-Ile-Nle-Asp-Gap-NH2] (Desaminotyrosyl-ADAIFTNSY[Agp][Agp]VLAQLSA[Agp][Agp]LLQDI[Nle]D[Agp]-NH2) |  |  |  |  |
| 86 | 72 | CCCC[C@H](NC(=O)[C@@H](NC(=O)[C@H](CC(=O)O)NC(=O)[C@H](CCC(N)=O)NC(=O)[C@H](CC(C)C)NC(=O)[C@H](CC(C)C)NC(=O)[C@H](CCNC(=N)N)NC(=O)[C@H](CCNC(=N)N)NC(=O)[C@H](C)NC(=O)[C@H](CO)NC(=O)[C@H](CC(C)C)NC(=O)[C@H](CCC(N)=O)NC(=O)[C@H](C)NC(=O)[C@H](CC(C)C)NC(=O)[C@@H](NC(=O)[C@H](CCNC(=N)N)NC(=O)[C@H](CCNC(=N)N)NC(=O)[C@H](Cc1ccc(O)cc1)NC(=O)[C@H](CO)NC(=O)[C@H](CC(N)=O)NC(=O)[C@@H](NC(=O)[C@H](Cc1ccccc1)NC(=O)[C@@H](NC(=O)[C@H](C)NC(=O)[C@H](CC(=O)O)NC(=O)[C@H](C)NC(=O)CCc1ccc(O)cc1)[C@@H](C)CC)[C@@H](C)O)C(C)C)[C@@H](C)CC)C(=O)N[C@@H](CC(=O)O)C(=O)N[C@@H](CCNC(=N)N)C(N)=O [Compound 3, Dat-Ala-Asp-Ala-Ile-Phe-Thr-Asn-Ser-Tyr^10-Gab-Gab-Val-Leu-Ala-Gln-Leu-Ser-Ala-Gab-Gab-Leu-Leu-Gln-Asp-Ile-Nle-Asp-Gab-NH2] (Desaminotyrosyl-ADAIFTNSY[Agb][Agb]VLAQLSA[Agb][Agb]LLQDI[Nle]D[Agb]-NH2) |  |  |  |  |
|  |  | CCCC[C@H](NC(=O)[C@@H](NC(=O)[C@H](CC(=O)O)NC(=O)[C@H](CCC(N)=O)NC(=O)[C@H](CC(C)C)NC(=O)[C@H](CC(C)C)NC(=O)[C@H](CCCCNC(=N)N)NC(=O)[C@H](CCCCNC(=N)N)NC(=O)[C@H](C)NC(=O)[C@H](CO)NC(=O)[C@H](CC(C)C)NC(=O)[C@H](CCC(N)=O)NC(=O)[C@H](C)NC(=O)[C@H](CC(C)C)NC(=O)[C@@H](NC(=O)[C@H](CCCCNC(=N)N)NC(=O)[C@H](CCCCNC(=N)N)NC(=O)[C@H](Cc1ccc(O)cc1)NC(=O)[C@H](CO)NC(=O)[C@H](CC(N)=O)NC(=O)[C@@H](NC(=O)[C@H](Cc1ccccc1)NC(=O)[C@@H](NC(=O)[C@H](C)NC(=O)[C@H](CC(=O)O)NC(=O)[C@H](C)NC(=O)CCc1ccc(O)cc1)[C@@H](C)CC)[C@@H](C)O)C(C)C)[C@@H](C)CC)C(=O)N[C@@H](CC(=O)O)C(=O)N[C@@H](CCCCNC(=N)N)C(N)=O [Compound 1, Dat-Ala-Asp-Ala-Ile-Phe-Thr-Asn-Ser-Tyr^10-hArg-hArg-Val-Leu-Ala-Gln-Leu-Ser-Ala-hArg^20-hArg-Leu-Leu-Gln-Asp-Ile-Nle-Asp-hArg^29-NH2] (Desaminotyrosyl-ADAIFTNSY[hArg][hArg]VLAQLSA[hArg][hArg]LLQDI[Nle]D[hArg]-NH2) | > 99 | > 99 | unchanged | Relative potency compared with hGH-RH-(1-29)—NH2 (GH release; dose 1.0 μg/kg vs 50 μg/kg of hGH-RH-(1-29)—NH2): 70 times higher; Relative potency compared with hGH-RH-(1-29)—NH2 (GH release; dose 3.0 μg/kg vs 150 μg/kg of hGH-RH-(1-29)—NH2): 38 times higher; Plasma GH at various times after injection, 15 min. (GH release; sc., dose 1 μg/kg): 99.1 ± 16 ng/mL; Plasma GH at various times after injection, 30 min. (GH release; sc., dose 1 μg/kg): 42.5 ± 9.2 ng/mL; Plasma GH at various times after injection, 0 min. (GH release; sc., dose 1 μg/kg): 23.1 ± 2 ng/mL; Plasma GH at various times after injection, 15 min. (GH release; sc., dose 3 μg/kg): 130 ± 16 ng/mL; Plasma GH at various times after injection, 30 min. (GH release; sc., dose 3 μg/kg): 58.4 ± 8.9 ng/mL; Plasma GH at various times after injection, 0 min. (GH release; sc., dose 3 μg/kg): 28.3 ± 4.1 ng/mL; Effect on GH release in rats, compared with saline control (in words) (GH release; rats, sc.): strongest stimulating effect; Net GH concentration Δ(15 − 30) (GH release; rats, sc., dose 1 μg/kg): 56.5 ± 14.7 ng/mL; Net GH concentration Δ(15 − 0) (GH release; rats, sc., dose 1 μg/kg): 75.9 ± 16.0 ng/mL; Net GH concentration Δ(15 − 30) (GH release; rats, sc., dose 3 μg/kg): 72.0 ± 12.6 ng/mL; Net GH concentration Δ(15 − 0) (GH release; rats, sc., dose 3 μg/kg): 102 ± 12.6 ng/mL |
